Assay results as given in PubChem BioAssay (NCI).
Values joined by “and” are separate entries in the source; they are usually repeats but may differ in a detail not shown here. Equal entries are not always repeated.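 Compound exposure: 48 hours, 5 concentrations, 96-well plates. At the GI50, growth is halved. TGI is the concentration that stops growth completely.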

Legend:
Experiment in all cases: growth of human tumour cells (NCI), 48 h
[1] = tested on: HT29 colon
[2] = tested on: SK-MEL-2 melanoma
[3] = tested on: HCC-2998 colon
[4] = tested on: DU-145 prostate
[5] = tested on: HCT-116 colon
[6] = tested on: SK-OV-3 ovarian
[7] = tested on: SW-620 colon
[8] = tested on: UACC-257 melanoma
[9] = tested on: COLO 205 colon
[10] = tested on: TK-10 renal

Clc1nc(Cl)c2c3c(sc2n1)CCCC3
GI50 [1]: 3.67 µM | TGI [1]: > 100 µM | TGI [2]: > 59.7 µM | GI50 [3]: > 28.9 µM | TGI [3]: > 100 µM | GI50 [4]: 3.71 µM | TGI [4]: > 100 µM | GI50 [5]: 3.95 µM | TGI [5]: > 100 µM | GI50 [6]: > 100 µM | TGI [6]: > 100 µM | GI50 [7]: 5.37 µM | TGI [7]: > 100 µM | GI50 [8]: > 26.1 µM | TGI [8]: > 100 µM | GI50 [9]: 2.75 µM | TGI [9]: > 22.6 µM | GI50 [10]: 5.34 µM | TGI [10]: > 100 µM

O=S1(=O)NC2CCC3NS(=O)(=O)NC4CCC(N1)N4S(=O)(=O)N23 (configuration not stated)
TGI [1]: > 100 µM | TGI [2]: > 100 µM | TGI [3]: > 100 µM | TGI [4]: > 100 µM | TGI [5]: > 100 µM | TGI [6]: > 100 µM | TGI [7]: > 100 µM | TGI [8]: > 100 µM | TGI [9]: > 100 µM | TGI [10]: > 100 µM

C=C1COC(O)(C2OCOC(C3CC(=O)NC(=O)C3)C2O)C1C (configuration not stated)
TGI [1]: 0.0207 µM and 0.0511 µM | GI50 [2]: 0.00243 µM | TGI [2]: 0.00927 µM and 0.0446 µM | GI50 [3]: 0.00218 µM | TGI [3]: 0.0174 µM and 0.0244 µM | GI50 [4]: 0.0125 µM | TGI [4]: 0.0616 µM | GI50 [5]: 0.00288 µM | TGI [5]: 0.0337 µM and 0.0335 µM | GI50 [6]: 0.00429 µM | TGI [6]: 0.052 µM | GI50 [7]: 0.00288 µM | TGI [7]: 0.042 µM and 0.142 µM | GI50 [8]: 0.004 µM and 0.0126 µM | TGI [8]: 0.0278 µM and 0.0453 µM | GI50 [9]: 0.00292 µM | TGI [9]: 0.0128 µM | GI50 [10]: 0.00456 µM | TGI [10]: 0.0539 µM and 0.0498 µM

Cc1cc2nc3ccc(=[N+](C)C)cc-3sc2cc1N
GI50 [1]: 2.09 µM and 2.87 µM | TGI [1]: 5.45 µM and 22.8 µM and 9.44 µM | GI50 [2]: 1.31 µM and 2.26 µM | TGI [2]: 5.62 µM and 17 µM and 8.27 µM | GI50 [3]: 1.2 µM and 2.12 µM | TGI [3]: 7.36 µM and 12.2 µM and 10.9 µM | GI50 [4]: 1.19 µM and 1.69 µM | GI50 [5]: 0.226 µM and 0.232 µM | TGI [5]: 1.2 µM and 5.03 µM and 0.98 µM | GI50 [6]: 1.98 µM and 3.01 µM | TGI [6]: 8.08 µM and 34.8 µM and 10.9 µM | GI50 [7]: 0.289 µM and 1.13 µM | TGI [7]: 1.24 µM and 9.68 µM and 3.05 µM | GI50 [8]: 0.501 µM and 1.95 µM | TGI [8]: 3.78 µM and 5.85 µM and 10.1 µM | GI50 [9]: 0.745 µM and 0.309 µM | TGI [9]: 2.19 µM and 9.28 µM and 0.94 µM | GI50 [10]: 2.65 µM and 2.75 µM | TGI [10]: 7.01 µM and 36.8 µM and 8.19 µM

N#CC1(Nc2ccc(-c3ccc(NC4(C#N)CCCC4)cc3)cc2)CCCC1
TGI [1]: > 100 µM | TGI [2]: > 100 µM | TGI [3]: > 100 µM | TGI [4]: > 100 µM | TGI [5]: > 100 µM | TGI [6]: > 100 µM | TGI [7]: > 100 µM | TGI [8]: > 100 µM | TGI [9]: > 100 µM | TGI [10]: > 100 µM

O=C1C=CC(=Nc2ccccc2)c2ccccc21
TGI [1]: 34.3 µM | TGI [2]: 8.15 µM | TGI [3]: 23.1 µM | TGI [4]: 3.14 µM | TGI [5]: 24.4 µM | TGI [6]: 80.5 µM | TGI [7]: > 100 µM | TGI [8]: 8.39 µM | TGI [9]: 20.3 µM | TGI [10]: 31.6 µM

NS(=O)(=O)c1ccc(NCc2cnc3ccccc3n2)cc1
TGI [1]: > 100 µM | TGI [2]: > 100 µM | TGI [3]: > 100 µM | TGI [4]: > 100 µM | TGI [5]: > 100 µM | TGI [6]: > 100 µM | TGI [7]: > 100 µM | TGI [8]: > 100 µM | TGI [9]: > 100 µM | TGI [10]: > 100 µM

CC1=C(C(=O)Nc2ccc3[nH]ncc3c2)C(c2ccc(Cl)c(Cl)c2)CC(=O)N1 (configuration not stated)
GI50 [1]: 24.6 µM | TGI [1]: > 25 µM | GI50 [2]: > 25 µM | TGI [2]: > 25 µM | GI50 [3]: > 25 µM | TGI [3]: > 25 µM | GI50 [4]: > 25 µM | TGI [4]: > 25 µM | GI50 [5]: 19.4 µM | TGI [5]: > 25 µM | GI50 [6]: > 25 µM | TGI [6]: > 25 µM | GI50 [7]: > 20.7 µM | TGI [7]: > 25 µM | GI50 [8]: > 25 µM | TGI [8]: > 25 µM | GI50 [9]: 16.6 µM | TGI [9]: > 25 µM | GI50 [10]: > 12.5 µM | TGI [10]: > 25 µM

c1ccc(CN2CCC3(CC2)SSC2(CCN(Cc4ccccc4)CC2)SS3)cc1
TGI [1]: > 100 µM | TGI [2]: > 100 µM | TGI [3]: > 100 µM | TGI [4]: > 100 µM | TGI [5]: > 100 µM | TGI [6]: > 100 µM | TGI [7]: > 100 µM | TGI [8]: > 100 µM | TGI [9]: > 100 µM | TGI [10]: > 100 µM

COc1cc2oc(-c3ccc(O)cc3O)c(CC=C(C)C)c(=O)c2c(O)c1/C=C/C(C)C
TGI [1]: 5.74 µM | TGI [2]: 17.9 µM | TGI [3]: 4.6 µM | TGI [4]: 11 µM | TGI [5]: 3.93 µM | TGI [6]: 20.6 µM | TGI [7]: 6.03 µM | TGI [8]: 17.5 µM | TGI [9]: 10.3 µM | TGI [10]: 14.1 µM

C=C1CC[C@@H]2[C@](C)(COC(C)=O)[C@H](OC(C)=O)CC[C@@]2(C)[C@@H]1CC(Nc1ccc(S(=O)(=O)Nc2cc(C)on2)cc1)C1=CCOC1=O (some centres not stated)
GI50 [1]: 1.58 µM | TGI [1]: 3.09 µM | GI50 [2]: 2.04 µM | TGI [2]: 4.4 µM | GI50 [3]: 2.14 µM | TGI [3]: 4.05 µM | GI50 [4]: 2.43 µM | TGI [4]: 6.53 µM | GI50 [5]: 1.12 µM | TGI [5]: 2.39 µM | GI50 [6]: 11 µM | TGI [6]: 23.1 µM | GI50 [7]: 1.32 µM | TGI [7]: 2.91 µM | GI50 [8]: 2.95 µM | TGI [8]: 6.19 µM | GI50 [9]: 1.97 µM | TGI [9]: 4.34 µM | GI50 [10]: 3.04 µM | TGI [10]: 7.11 µM

CCCCCCC/C=C/[C@H]1O[C@]2(O)C(=O)C=C3C[C@@H](O[C@@H]4O[C@H](CO)[C@@H](O)C(O)[C@@H]4O)C[C@@H]3[C@H]2C=C1C (some centres not stated)
GI50 [1]: 4.13 µM | TGI [1]: 10 µM | GI50 [2]: 3.46 µM | TGI [2]: 9.34 µM | GI50 [3]: 4.93 µM | TGI [3]: 9.82 µM | GI50 [4]: 3.52 µM | TGI [4]: 7.44 µM | GI50 [5]: 0.95 µM | TGI [5]: 3.64 µM | GI50 [6]: 5.95 µM | TGI [6]: 16.4 µM | GI50 [7]: 1.14 µM | TGI [7]: 5.49 µM | GI50 [8]: 2.98 µM | TGI [8]: 7.59 µM | GI50 [9]: 5.56 µM | TGI [9]: 11.8 µM | GI50 [10]: 5.51 µM | TGI [10]: 11 µM

O=c1c2c(c3ccccc3n1-c1ccccc1)NC(=S)NC2c1ccc(Cl)cc1 (configuration not stated)
GI50 [1]: 4.69 µM | TGI [1]: > 100 µM | GI50 [2]: 3.62 µM | TGI [2]: 32.4 µM | GI50 [3]: 2.2 µM | TGI [3]: 16.3 µM | GI50 [4]: 3 µM | TGI [4]: 28.5 µM | GI50 [5]: 1.96 µM | TGI [5]: 7.32 µM | GI50 [6]: 9.15 µM | TGI [6]: 65 µM | GI50 [7]: 6.97 µM | TGI [7]: 49.9 µM | GI50 [8]: 5.9 µM | TGI [8]: > 100 µM | GI50 [9]: 8.09 µM | TGI [9]: 29.1 µM | GI50 [10]: 9.62 µM | TGI [10]: > 100 µM

CN(C)CCC=C1c2ccccc2C(C)(C)c2ccccc21
GI50 [1]: 3.06 µM | TGI [1]: 13.6 µM | GI50 [2]: 6.26 µM | TGI [2]: 22.1 µM | GI50 [3]: 4.25 µM | TGI [3]: 15 µM | GI50 [4]: 14.3 µM | TGI [4]: 27.3 µM | GI50 [5]: 10.3 µM | TGI [5]: 22.4 µM | GI50 [6]: 15.5 µM | TGI [6]: 28.8 µM | GI50 [7]: 13.3 µM | TGI [7]: 26.2 µM | GI50 [8]: 2.42 µM | TGI [8]: 6.34 µM | GI50 [9]: 3.82 µM | TGI [9]: 14.3 µM | GI50 [10]: 18.4 µM | TGI [10]: 37 µM

C[N+](C)(CCCCCC[N+](C)(C)CCCN1C(=O)c2cc3ccccc3cc2C1=O)CCCN1C(=O)c2cc3ccccc3cc2C1=O
GI50 [1]: > 37.5 µM | TGI [1]: > 37.5 µM | GI50 [2]: > 37.5 µM | TGI [2]: > 37.5 µM | GI50 [3]: > 37.5 µM | TGI [3]: > 37.5 µM | GI50 [4]: > 37.5 µM | TGI [4]: > 37.5 µM | GI50 [5]: > 37.5 µM | TGI [5]: > 37.5 µM | GI50 [6]: > 37.5 µM | TGI [6]: > 37.5 µM | GI50 [7]: > 37.5 µM | TGI [7]: > 37.5 µM | GI50 [8]: > 37.5 µM | TGI [8]: > 37.5 µM | GI50 [9]: > 37.5 µM | TGI [9]: > 37.5 µM | GI50 [10]: > 37.5 µM | TGI [10]: > 37.5 µM

COc1cccc(-n2cc(-c3nc(Nc4cc(C)[nH]n4)c4ccccc4n3)nn2)c1
GI50 [1]: 7.05 µM | TGI [1]: 14.5 µM | GI50 [2]: 1.71 µM | TGI [2]: 9.27 µM | GI50 [3]: 5.86 µM | TGI [3]: 13.3 µM | GI50 [4]: 5.51 µM | TGI [4]: 11.7 µM | GI50 [5]: 2.1 µM | TGI [5]: 10.5 µM | GI50 [6]: 2.34 µM | TGI [6]: 10.8 µM | GI50 [7]: 5.22 µM | TGI [7]: 14.9 µM | GI50 [8]: 7.75 µM | TGI [8]: 15 µM | GI50 [9]: 6.8 µM | TGI [9]: 15.9 µM | GI50 [10]: 0.438 µM | TGI [10]: 8.42 µM

C[C@]12CC[C@H]3[C@@H](CCC4=CC(=O)CC[C@@]43C)[C@@H]1CC[C@@H]2C(=O)COS(=O)(=O)c1ccc(Br)cc1
TGI [1]: 30.3 µM | TGI [2]: 22.3 µM | TGI [3]: 8.74 µM | TGI [4]: 34.4 µM | TGI [5]: 22.7 µM | TGI [6]: 38.1 µM | TGI [7]: > 44.5 µM | TGI [8]: 31.9 µM | TGI [9]: 53.1 µM | TGI [10]: 34.5 µM
